According to patent publication US12448372B2, “Class of triaromatic compounds targeting bifunctional phosphorylation site of STAT3 and applications thereof” (SHANGHAI YUYAO BIOTECH LTD., priority 2019, dated 2025):

Tests used:
STAT3 protein = STAT3 protein (Homo sapiens, UniProt P40763); assay: Binding activity to STAT3 protein by microscale thermophoresis (MST); details: purified STAT3 recombinant protein
Text: (1) Determination of Binding Activities of Compounds to STAT3 Protein by Microscale Thermophoresis (MST) Method
The microscale thermophoresis (MST) technique is a simple, rapid, and accurate method for quantifying biomolecular interactions. It can measure the movement of molecules in a microscopic temperature gradient field, as well as detect changes of molecular hydration shell, charge and size. When the Nanotemper microscale thermophoresis instrument locally heated by a infrared laser, molecules will move in a directional manner, then the molecular distribution ratio in the temperature gradient field are analyzed by a fluorescence to detect whether a small molecule compound binds to a target protein. The experimental operation is as follows: firstly, compounds to be tested are diluted in a gradient using MST test buffer, total 16 concentrations being configured; subsequently, the purified STAT3 recombinant protein is labeled using the HIS tag labeling kit, and the final concentration of the labeled protein is 100-200 nM; the labeled STAT3 proteins are well mixed with the diluted compounds and incubated and protected from light for 30 minutes; finally the samples were loaded by capillary tube and detected on the instrument. The binding constants (K^D) of small molecules to STAT3 protein were analyzed by Mo. analysis software.

Capan-2 = assay: Cell proliferation by MTS method, Capan-2; format: cell-based; details: Homo sapiens; Table 1, Capan-2; read-out: Tumour cell proliferative activity/IC50(nM) Pancreatic Cancer Capan-2
Text: (§1) (2) Detection of Cell Proliferation by MTS Method
(§2) The MTS assay is a method for indirectly determining the number of living cells via colourimetric method. MTS is a newly synthesised tetrazole compound that reflects cell viability, which can be reduced by succinate dehydrogenase in the mitochondria of living cells to an orange-coloured formazan with an absorbance of the reduced product measured at 490 nm being in proportion to the number of living cells, thus reflecting the cell viability. This assay can be used to evaluate the effect of the compound on the proliferation of pancreatic cancer cells, thereby determining the inhibitory effect of the compound on the proliferation of pancreatic cancer cells and to calculate the IC^50. Each cells were inoculated uniformly into a 96-well plate at a density of 1-20×10^3 cells/well, 100 μL per well, and placed in a constant temperature incubator until the cells adhered to the wall. The control group was added with the corresponding medium and the experimental groups were given different concentrations of the compound prepared by the examples of the present invention, and the cells were taken out 24-96 h after administration for observing the cell state under a microscope. Under light-proof conditions, MTS was added and well mixed, the mixture was placed in a constant temperature incubator at 37° C., and the light absorption value were measured using an enzyme marker at 490 nm and the experiment was repeated for three times, IC50 was calculated with GraphPad5 Prism software.

MKN45 = assay: Cell proliferation by MTS method, MKN45; format: cell-based; details: Homo sapiens, MKN-45; Table 1, MKN45; read-out: Tumour cell proliferative activity/IC50(nM) gastric Cancer MKN45
Text: as §1, §2

Huh7 = assay: Cell proliferation by MTS method, Huh7; format: cell-based; details: Homo sapiens, Huh-7; Table 1, Huh7; read-out: Tumour cell proliferative activity/IC50(nM) Liver Cancer Huh7
Text: as §1, §2

HCC827 = assay: Cell proliferation by MTS method, HCC827; format: cell-based; details: Homo sapiens; Table 1, HCC827; read-out: Tumour cell proliferative activity/IC50(nM) Lung Cancer HCC827
Text: as §1, §2

STAT3 protein, sequence (P40763 whole entry): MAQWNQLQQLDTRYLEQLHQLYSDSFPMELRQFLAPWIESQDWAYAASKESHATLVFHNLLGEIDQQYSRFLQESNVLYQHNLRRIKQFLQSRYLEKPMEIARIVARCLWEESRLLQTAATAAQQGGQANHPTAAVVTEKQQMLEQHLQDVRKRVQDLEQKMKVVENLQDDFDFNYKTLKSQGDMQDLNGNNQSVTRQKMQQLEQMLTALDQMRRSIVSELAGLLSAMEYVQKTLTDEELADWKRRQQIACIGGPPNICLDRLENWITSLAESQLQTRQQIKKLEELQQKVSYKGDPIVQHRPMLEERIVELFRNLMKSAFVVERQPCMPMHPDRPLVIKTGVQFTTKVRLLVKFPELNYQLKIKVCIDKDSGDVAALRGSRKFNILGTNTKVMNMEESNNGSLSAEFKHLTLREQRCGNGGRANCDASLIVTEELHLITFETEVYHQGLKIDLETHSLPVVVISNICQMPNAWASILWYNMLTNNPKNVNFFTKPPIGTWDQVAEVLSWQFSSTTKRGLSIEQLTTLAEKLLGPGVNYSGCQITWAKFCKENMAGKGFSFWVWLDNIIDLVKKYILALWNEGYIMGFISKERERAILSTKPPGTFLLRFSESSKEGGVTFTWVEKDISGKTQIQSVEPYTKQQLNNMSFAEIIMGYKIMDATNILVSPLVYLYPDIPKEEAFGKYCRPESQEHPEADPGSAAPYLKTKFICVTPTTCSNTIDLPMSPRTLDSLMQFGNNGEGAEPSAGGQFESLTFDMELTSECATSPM

SMILES	Kd (STAT3 protein)	IC50 (Capan-2)	IC50 (MKN45)	IC50 (Huh7)	IC50 (HCC827)
CCCn1c(C(=O)N2CCN(Cc3ccc(OCC(F)(F)F)cc3)CC2)cc2ccc(Oc3cnc(-c4nc(-c5ccc(C(F)(F)F)cc5)no4)cn3)cc21 [Example 16, (1-propyl-6-((5-(3-(4-(trifluoromethyl)phenyl)-1,2,4-oxadiazol-5-yl)pyrazin-2-yl)oxy)-1H-indol-2-yl)(4-(4-(2,2,2-trifluoromethoxy)benzyl)piperazin-1-yl)methanone]	< 0.1 µM	< 100 nM	< 100 nM	< 100 nM	< 100 nM
C=CCn1c(C(=O)N2CCN(Cc3ccc(OCC(F)(F)F)cc3)CC2)cc2ccc(Oc3cnc(-c4nc(-c5ccc(C(F)(F)F)cc5)no4)cn3)cc21 [Example 17, (1-allyl-6-((5-(3-(4-(trifluoromethyl)phenyl)-1,2,4-oxadiazol-5-yl)pyrazin-2-yl)oxy)-1H-indol-2-yl) (4-(4-(2,2,2-trifluoromethoxy)benzyl)piperazin-1-yl)methanone]	< 0.01 µM	< 10 nM	< 10 nM	< 10 nM	< 10 nM
COCCn1c(C(=O)N2CCN(Cc3ccc(OCC(F)(F)F)cc3)CC2)cc2ccc(Oc3cnc(-c4nc(-c5ccc(C(F)(F)F)cc5)no4)cn3)cc21 [Example 18, (1-(2-methoxyethyl)-6-((5-(3-(4-(trifluoromethyl)phenyl)-1,2,4-oxadiazol-5-yl)pyrazin-2-yl)oxy)-1H-indol-2-yl) (4-(4-(2,2,2-trifluoroethoxy)benzyl)piperazin-1-yl)methanone]	< 0.1 µM	< 100 nM	< 100 nM	< 100 nM	< 100 nM
CC(C)C(=O)n1c(C(=O)N2CCN(Cc3ccc(OCC(F)(F)F)cc3)CC2)cc2ccc(Oc3cnc(-c4nc(-c5ccc(C(F)(F)F)cc5)no4)cn3)cc21 [Example 19]	< 0.01 µM	< 10 nM	< 10 nM	< 10 nM	< 10 nM
COC(=O)Cn1c(C(=O)N2CCN(Cc3ccc(OCC(F)(F)F)cc3)CC2)cc2ccc(Oc3cnc(-c4nc(-c5ccc(C(F)(F)F)cc5)no4)cn3)cc21 [Example 20]	< 1 µM	< 1000 nM	< 1000 nM	< 1000 nM	< 1000 nM
CCOC(=O)Cn1c(C(=O)N2CCN(Cc3ccc(OCC(F)(F)F)cc3)CC2)cc2ccc(Oc3cnc(-c4nc(-c5ccc(C(F)(F)F)cc5)no4)cn3)cc21 [Example 21]	< 0.1 µM	< 1000 nM	< 1000 nM	< 1000 nM	< 1000 nM
O=C(c1cc2ccc(Oc3cnc(-c4nc(-c5ccc(C(F)(F)F)cc5)no4)cn3)cc2n1Cc1ccccc1)N1CCN(Cc2ccc(OCC(F)(F)F)cc2)CC1 [Example 22]	< 0.1 µM	< 1000 nM	< 1000 nM	< 1000 nM	< 1000 nM
Cn1c(C(=O)N2CCN(Cc3ccccc3)CC2)cc2ccc(Oc3cnc(-c4nc(-c5ccc(C(F)(F)F)cc5)no4)cn3)cc21 [Example 23, (4-benzylpiperazin-1-yl)(1-methyl-6-((5-(3-(4-(trifluoromethyl)phenyl)-1,2,4-oxadiazol-5-yl)pyrazin-2-yl)oxy)-1H-indol-2-yl)methanone]	< 0.1 µM	< 1000 nM	< 1000 nM	< 1000 nM	< 1000 nM
Cc1cccc(CN2CCN(C(=O)c3cc4ccc(Oc5cnc(-c6nc(-c7ccc(C(F)(F)F)cc7)no6)cn5)cc4n3C)CC2)c1 [Example 24, (1-methyl-6-((5-(3-(4-(trifluoromethyl)phenyl)-1,2,4-oxadiazol-5-yl)pyrazin-2-yl)oxy)-1H-indol-2-yl) (4-(3-methylbenzyl)piperazin-1-yl)methanone]	< 0.1 µM	< 1000 nM	< 1000 nM	< 1000 nM	< 1000 nM
Cc1ccc(CN2CCN(C(=O)c3cc4ccc(Oc5cnc(-c6nc(-c7ccc(C(F)(F)F)cc7)no6)cn5)cc4n3C)CC2)cc1 [Example 25, (1-methyl-6-((5-(3-(4-(trifluoromethyl)phenyl)-1,2,4-oxadiazol-5-yl)pyrazin-2-yl)oxy)-1H-indol-2-yl) (4-(4-methylbenzyl)piperazin-1-yl)methanone]	< 0.1 µM	< 100 nM	< 100 nM	< 100 nM	< 100 nM
Cn1c(C(=O)N2CCN(Cc3ccc(F)cc3)CC2)cc2ccc(Oc3cnc(-c4nc(-c5ccc(C(F)(F)F)cc5)no4)cn3)cc21 [Example 26, (4-(4-fluorobenzyl)piperazin-1-yl)(1-methyl-6-((5-(3-(4-(trifluoromethyl)phenyl)-1,2,4-oxadiazol-5-yl)pyrazin-2-yl)oxy)-1H-indol-2-yl)methanone]	< 1 µM	< 1000 nM	< 1000 nM	< 1000 nM	< 1000 nM
Cn1c(C(=O)N2CCN(Cc3ccc(Cl)cc3)CC2)cc2ccc(Oc3cnc(-c4nc(-c5ccc(C(F)(F)F)cc5)no4)cn3)cc21 [Example 27, (4-(4-chlorobenzyl)piperazin-1-yl)(1-methyl-6-((5-(3-(4-(trifluoromethyl)phenyl)-1,2,4-oxadiazol-5-yl)pyrazin-2-yl)oxy)-1H-indol-2-yl)methanone]	< 0.1 µM	< 100 nM	< 100 nM	< 100 nM	< 100 nM
Cn1c(C(=O)N2CCN(Cc3ccc(Br)cc3)CC2)cc2ccc(Oc3cnc(-c4nc(-c5ccc(C(F)(F)F)cc5)no4)cn3)cc21 [Example 28, (4-(4-bromobenzyl)piperazin-1-yl)(1-methyl-6-((5-(3-(4-(trifluoromethyl)phenyl)-1,2,4-oxadiazol-5-yl)pyrazin-2-yl)oxy)-1H-indol-2-yl)methanone]	< 0.1 µM	< 100 nM	< 100 nM	< 100 nM	< 100 nM
Cn1c(C(=O)N2CCN(Cc3cccc(C(F)(F)F)c3)CC2)cc2ccc(Oc3cnc(-c4nc(-c5ccc(C(F)(F)F)cc5)no4)cn3)cc21 [Example 29, (1-methyl-6-((5-(3-(4-(trifluoromethyl)phenyl)-1,2,4-oxadiazol-5-yl)pyrazin-2-yl)oxy)-1H-indol-2-yl)(4-(3-(trifluoromethyl)benzyl)piperazin-1-yl)methanone]	< 1 µM	< 1000 nM	< 1000 nM	< 1000 nM	< 1000 nM
Cn1c(C(=O)N2CCN(Cc3ccc(C(F)(F)F)cc3)CC2)cc2ccc(Oc3cnc(-c4nc(-c5ccc(C(F)(F)F)cc5)no4)cn3)cc21 [Example 30, (1-methyl-6-((5-(3-(4-(trifluoromethyl)phenyl)-1,2,4-oxadiazol-5-yl)pyrazin-2-yl)oxy)-1H-indol-2-yl)(4-(4-(trifluoromethyl)benzyl)piperazin-1-yl)methanone]	< 1 µM	< 1000 nM	< 1000 nM	< 1000 nM	< 1000 nM
COc1ccc(CN2CCN(C(=O)c3cc4ccc(Oc5cnc(-c6nc(-c7ccc(C(F)(F)F)cc7)no6)cn5)cc4n3C)CC2)cc1 [Example 31, (4-(4-methoxybenzyl)piperazin-1-yl)(1-methyl-6-((5-(3-(4-(trifluoromethyl)phenyl)-1,2,4-oxadiazol-5-yl)pyrazin-2-yl)oxy)-1H-indol-2-yl)methanone]	< 0.1 µM	< 100 nM	< 100 nM	< 100 nM	< 100 nM
Cn1c(C(=O)N2CCN(Cc3cccc(OCC(F)(F)F)c3)CC2)cc2ccc(Oc3cnc(-c4nc(-c5ccc(C(F)(F)F)cc5)no4)cn3)cc21 [Example 32, (1-methyl-6-((5-(3-(4-(trifluoromethyl)phenyl)-1,2,4-oxadiazol-5-yl)pyrazin-2-yl)oxy)-1H-indol-2-yl)(4-(3-(2,2,2-trifluoroethoxy)benzyl)piperazin-1-yl)methanone]	< 0.1 µM	< 100 nM	< 100 nM	< 100 nM	< 100 nM
